Data as given in patent US8420312B2, “Genes associated with canine osteoarthritis and related methods and compositions” (Nestec S.A., priority 2004, dated 2013).

Columns and labels:
Assay type in all cases: cell-based, canine
OA-Associated Genes [1] = test: Microarray analysis of chondrocyte beads treated with chondroitin sulfate; conditions: summary statement, Tables 7-12
Source text: (§1) Microarray probes were generated by PCR-amplifying clones isolated from differential display. Probes were spotted in duplicate onto poly-L-lysine coated slides using a GMS417 (Affymetrix) arrayer. Osteoarthritic cartilage samples were obtained from the femoral heads of clinically diagnosed canines undergoing total […] replacement. RNA was hybridized to the slides using the HC ExpressArray (Digene) kit and visualized using a GMS418 (Affymetrix) scanner. The Imagene (Biodiscovery) program was used for spot finding and subsequent data analysis was performed using GeneSight (Biodiscovery). Expression levels are represented after background subtraction, log(base 2) transformation and global slide signal normalization. […]
(§2) Scanned images representing RNA transcripts bound to specific clones were quantified and checked for spot quality control using Imagene analysis software (BioDiscovery). Quantified images were analyzed using Genesight analysis software (BioDiscovery). The analysis represented subtraction of background surrounding the spots, averaging spot replicates, deletion of clone information representing clone hybridization signals not greater than 200 above background on all samples, log (base 2) transformation and global normalization of each slide (values expressed as percent of average spot intensity). […]

OA-Associated Genes [2] = test: Microarray analysis of chondrocyte beads treated with 1,25 D3 or 24,25 D3; conditions: summary statement, Tables 19-20
Source text: Microarray probes were generated by PCR-amplifying clones isolated from differential display. Probes were spotted in duplicate onto poly-L-lysine coated slides using a GMS417 (Affymetrix) arrayer. Osteoarthritic cartilage samples were obtained from the femoral heads of clinically diagnosed canines undergoing total […] replacement. RNA was hybridized to the slides using the HC ExpressArray ([…]) kit and visualized using a GMS418 (Affymetrix) scanner. The […] (Biodiscovery) program was used for spot finding and subsequent data analysis was performed using GeneSight (Biodiscovery). Expression levels are represented after background subtraction, log(base 2) transformation and global slide signal normalization. […] Scanned images representing RNA transcripts bound to specific clones were quantified and checked for spot quality control using […] analysis software (BioDiscovery). Quantified images were analyzed using […] analysis software (BioDiscovery). The analysis represented subtraction of background surrounding the spots, averaging spot replicates, deletion of clone information representing clone hybridization signals not greater than 200 above background on all samples, log (base 2) transformation and global normalization of each slide (values expressed as percent of average spot intensity). […]

OA-Associated Genes [3] = test: Microarray analysis of chondrocytes enriched with EPA or AA; conditions: summary statement, Tables 21-23
Source text: as §1, §2

OA-Associated Genes [4] = test: Microarray analysis of chondrocyte beads treated with glucosamine; conditions: summary statement, Tables 13-18
Source text: as §1, §2

chondroitin sulfate
effect on OA-associated genes (OA-Associated Genes [1]): have an effect on a wide variety of OA-associated genes

C=C1/C(=C\C=C2/CCC[C@]3(C)[C@@H]([C@H](C)CCCC(C)(C)O)CC[C@@H]23)C[C@@H](O)C[C@@H]1O [1α,25-dihydroxyvitamin D3]
effect on expression of OA-related genes (OA-Associated Genes [2]): affected the expression of OA-related genes

CCCCC/C=C\C/C=C\C/C=C\C/C=C\CCCC(=O)O [arachidonic acid (AA), arachidonic acid]
effect on OA-related genes (OA-Associated Genes [3]): affect OA-related genes

C=C1CC[C@H](O)C/C1=C/C=C1\CCC[C@]2(C)[C@@H]([C@H](C)CC[C@@H](O)C(C)(C)O)CC[C@@H]12 [24R,25-dihydroxyvitamin D3]
effect on expression of OA-related genes (OA-Associated Genes [2]): affected the expression of OA-related genes

N[C@H]1C(O)O[C@H](CO)[C@@H](O)[C@@H]1O (some centres unmarked) [Glucosamine, glucosamine]
effect on OA-associated genes (OA-Associated Genes [4]): have an effect on a variety of OA-associated genes
